In patent EP0908457B1, “3-(1,2-benzisothiazol- and isoxazol-5-Y1)-2,4(1H,3H)-pyrimidinedione or thione and 3-(1,2-benzisothiazol- and isoxazol-5-y1)-4(3H)-pyrimidinone or thione herbicidal agents” (BASF AKTIENGESELLSCHAFT, priority 1997, dated 1999):

Tests used:
[1] = test system: Cyperus serotinus, Rottb.; test: Preemergence weed control under flooded paddy conditions, CYPSE (Flatsedge); assay type: in vivo; conditions: rated three to four weeks after treatment; as to herbicidal effect rating, CYPSE: meaning of each grade not given here
Sagittaria pygmaea, L. = test: Preemergence weed control under flooded paddy conditions, SAGPY (Arrowhead (Pygmaea)); assay type: in vivo; conditions: flooded paddy, rated three to four weeks after treatment; as to herbicidal effect rating, SAGPY: meaning of each grade not given here
Cyperus iria = test: Preemergence weed control under flooded paddy conditions, CYPIR (Rice Flatsedge); assay type: in vivo; conditions: flooded paddy, rated three to four weeks after treatment; as to herbicidal effect rating, CYPIR: meaning of each grade not given here
[2] = test system: Echinochloa oryzoides (Ard.) Fritsch.; test: Preemergence weed control under flooded paddy conditions, ECHORC (Watergrass (Calif.)); assay type: in vivo; conditions: flooded paddy, rated three to four weeks after treatment; as to herbicidal effect rating, ECHORC: meaning of each grade not given here
[3] = test system: Monochoria vaginalis, Presl.; test: Preemergence weed control under flooded paddy conditions, MOOVA (Monochoria); assay type: in vivo; conditions: flooded paddy, rated three to four weeks after treatment; as to herbicidal effect rating, MOOVA: meaning of each grade not given here
[4] = test system: Oryza sativa, (L.) Tebonnet; test: Rice tolerance to post-transplant applications under flooded paddy conditions (Example 187), ORYSAT (Rice, Tebonnet); conditions: rated three to four weeks after treatment; as to herbicidal effect rating ORYSAT: meaning of each grade not given here
[5] = Rate 0.0320 kg/ha, preemergence
[6] = Rate 0.0620 kg/ha, preemergence
[7] = Rate 0.1250 kg/ha, preemergence
[8] = Rate 0.2500 kg/ha, preemergence
[9] = Rate 0.0320 kg/ha, preemergence weeds
[10] = Rate 0.0620 kg/ha, preemergence weeds
[11] = Rate 0.1250 kg/ha, preemergence weeds
[12] = Rate 0.2500 kg/ha, preemergence weeds

Cn1c(C(F)(F)F)cc(=O)n(-c2ccc3snc(C#N)c3c2)c1=O [Example 373, 1,2-Benzisothiazole-3-carbonitrile, 5-[3,6-dihydro-3-methyl-2,6-dioxo-4-(trifluoromethyl)-1(2H)-pyrimidinyl]-]
5.0: herbicidal effect rating, CYPSE [1, 6]
9.0: herbicidal effect rating, SAGPY (Sagittaria pygmaea, L.; [7]) | herbicidal effect rating, SAGPY (Sagittaria pygmaea, L.; [8]) | herbicidal effect rating, CYPIR (Cyperus iria; [6]) | herbicidal effect rating, CYPIR (Cyperus iria; [7]) | herbicidal effect rating, CYPIR (Cyperus iria; [8]) | herbicidal effect rating, ECHORC [2, 6] | herbicidal effect rating, ECHORC [2, 7] | herbicidal effect rating, ECHORC [2, 8] | herbicidal effect rating, MOOVA [3, 5] | herbicidal effect rating, MOOVA [3, 6] | herbicidal effect rating, MOOVA [3, 7] | herbicidal effect rating, MOOVA [3, 8]
6.0: herbicidal effect rating ORYSAT ([4]; Rate 0.1250 kg/ha)
8.5: herbicidal effect rating, SAGPY (Sagittaria pygmaea, L.; [6])
6.5: herbicidal effect rating, CYPIR (Cyperus iria; [5]) | herbicidal effect rating, ECHORC [2, 5] | herbicidal effect rating ORYSAT ([4]; Rate 0.0620 kg/ha)
7.5: herbicidal effect rating, CYPSE [1, 7]
2.0: herbicidal effect rating, CYPSE [1, 5]
5.5: herbicidal effect rating, SAGPY (Sagittaria pygmaea, L.; [5]) | herbicidal effect rating ORYSAT ([4]; Rate 0.0320 kg/ha)
8.0: herbicidal effect rating, CYPSE [1, 8] | herbicidal effect rating ORYSAT ([4]; Rate 0.2500 kg/ha)

CC(=O)NCCOC(=O)c1nsc2ccc(-n3c(=O)cc(C(F)(F)F)n(C)c3=O)cc12 [Example 387, 1,2-Benzisothiazole-3-carboxylic acid, 5-[3,6-dihydro-3-methyl-2,6-dioxo-4-(trifluoromethyl)-1(2H)-pyrimidinyl]-, 2-acetamidoethyl ester]
9.0: herbicidal effect rating, MOOVA [3, 6] | herbicidal effect rating, MOOVA [3, 7] | herbicidal effect rating, MOOVA [3, 8]
2.0: herbicidal effect rating, CYPSE [1, 5] | herbicidal effect rating ORYSAT ([4]; Rate 0.1250 kg/ha) | herbicidal effect rating ORYSAT ([4]; Rate 0.2500 kg/ha)
7.0: herbicidal effect rating, CYPIR (Cyperus iria; [8])
6.0: herbicidal effect rating, SAGPY (Sagittaria pygmaea, L.; [8]) | herbicidal effect rating, CYPIR (Cyperus iria; [7])
0.0: herbicidal effect rating, CYPIR (Cyperus iria; [5]) | herbicidal effect rating, ECHORC [2, 5] | herbicidal effect rating, ECHORC [2, 6] | herbicidal effect rating, ECHORC [2, 7] | herbicidal effect rating ORYSAT ([4]; Rate 0.0320 kg/ha) | herbicidal effect rating ORYSAT ([4]; Rate 0.0620 kg/ha)
5.0: herbicidal effect rating, CYPSE [1, 6] | herbicidal effect rating, CYPSE [1, 7] | herbicidal effect rating, CYPSE [1, 8] | herbicidal effect rating, SAGPY (Sagittaria pygmaea, L.; [7]) | herbicidal effect rating, CYPIR (Cyperus iria; [6])
3.0: herbicidal effect rating, SAGPY (Sagittaria pygmaea, L.; [5]) | herbicidal effect rating, ECHORC [2, 8]
4.0: herbicidal effect rating, SAGPY (Sagittaria pygmaea, L.; [6]) | herbicidal effect rating, MOOVA [3, 5]

Cc1ccc(OCC(=O)NO)c(-c2nsc3ccc(-n4c(=O)cc(C(F)(F)F)n(C)c4=O)cc23)c1 [Example 313, Acetohydroxamic acid, 2-{{2-{5-[3,6-dihydro-3-methyl-2,6-dioxo-4-(trifluoromethyl)-1(2H)-pyrimidinyl]-1,2-benzisothiazol-3-yl}-p-tolyl}oxy}-]
4.0: herbicidal effect rating, ECHORC [2, 9] | herbicidal effect rating ORYSAT ([4]; Rate 0.2500 kg/ha)
5.0: herbicidal effect rating, ECHORC [2, 10]
9.0: herbicidal effect rating, CYPIR (Cyperus iria; [11]) | herbicidal effect rating, CYPIR (Cyperus iria; [12]) | herbicidal effect rating, ECHORC [2, 12] | herbicidal effect rating, MOOVA [3, 10] | herbicidal effect rating, MOOVA [3, 11] | herbicidal effect rating, MOOVA [3, 12]
1.0: herbicidal effect rating ORYSAT ([4]; Rate 0.0620 kg/ha)
3.0: herbicidal effect rating, SAGPY (Sagittaria pygmaea, L.; [12]) | herbicidal effect rating ORYSAT ([4]; Rate 0.1250 kg/ha)
2.0: herbicidal effect rating, CYPSE [1, 12]
0.0: herbicidal effect rating, CYPSE [1, 9] | herbicidal effect rating, CYPSE [1, 10] | herbicidal effect rating, CYPSE [1, 11] | herbicidal effect rating, SAGPY (Sagittaria pygmaea, L.; [9]) | herbicidal effect rating, SAGPY (Sagittaria pygmaea, L.; [10]) | herbicidal effect rating, SAGPY (Sagittaria pygmaea, L.; [11]) | herbicidal effect rating, CYPIR (Cyperus iria; [9]) | herbicidal effect rating, CYPIR (Cyperus iria; [10]) | herbicidal effect rating, MOOVA [3, 9] | herbicidal effect rating ORYSAT ([4]; Rate 0.0320 kg/ha)
6.0: herbicidal effect rating, ECHORC [2, 11]

Cn1c(C(F)(F)F)cc(=O)n(-c2ccc3snc(C(C)(C)C(=O)OCc4ccco4)c3c2)c1=O [Example 487, 1,2-Benzisothiazole-3-acetic acid, 5-[3,6-dihydro-3-methyl-2,6-dioxo-4-(trifluoromethyl)-1(2H)-pyrimidinyl]-alpha,alpha-dimethyl-, furfuryl ester]
7.0: SAGPY herbicidal rating (Sagittaria pygmaea, L.; 0.2500 kg/ha, preemergence) | ECHORC herbicidal rating ([2]; 0.0620 kg/ha, preemergence) | ECHORC herbicidal rating ([2]; 0.1250 kg/ha, preemergence) | MOOVA herbicidal rating ([3]; 0.0320 kg/ha, preemergence) | ORYSAT herbicidal rating (rice tolerance) ([4]; 0.2500 kg/ha)
2.0: ORYSAT herbicidal rating (rice tolerance) ([4]; 0.0320 kg/ha)
6.0: SAGPY herbicidal rating (Sagittaria pygmaea, L.; 0.1250 kg/ha, preemergence) | CYPIR herbicidal rating (Cyperus iria; 0.1250 kg/ha, preemergence) | ECHORC herbicidal rating ([2]; 0.0320 kg/ha, preemergence) | ORYSAT herbicidal rating (rice tolerance) ([4]; 0.1250 kg/ha)
9.0: CYPIR herbicidal rating (Cyperus iria; 0.2500 kg/ha, preemergence) | ECHORC herbicidal rating ([2]; 0.2500 kg/ha, preemergence) | MOOVA herbicidal rating ([3]; 0.0620 kg/ha, preemergence) | MOOVA herbicidal rating ([3]; 0.1250 kg/ha, preemergence) | MOOVA herbicidal rating ([3]; 0.2500 kg/ha, preemergence)
4.0: SAGPY herbicidal rating (Sagittaria pygmaea, L.; 0.0320 kg/ha, preemergence) | CYPIR herbicidal rating (Cyperus iria; 0.0320 kg/ha, preemergence)
5.0: SAGPY herbicidal rating (Sagittaria pygmaea, L.; 0.0620 kg/ha, preemergence) | CYPIR herbicidal rating (Cyperus iria; 0.0620 kg/ha, preemergence)
3.0: CYPSE herbicidal rating ([1]; 0.2500 kg/ha, preemergence) | ORYSAT herbicidal rating (rice tolerance) ([4]; 0.0620 kg/ha)

Cn1c(C(F)(F)F)cc(=O)n(-c2ccc3snc(C(=O)NS(=O)(=O)Cc4ccc(Cl)cc4)c3c2)c1=O [Example 468, 1,2-Benzisothiazole-3-carboxamide, N-[(p-chlorobenzyl)sulfonyl]-5-[3,6-dihydro-3-methyl-2,6-dioxo-4-(trifluoromethyl)-1(2H)-pyrimidinyl]-]
2.0: CYPSE herbicidal rating ([1]; 0.0320 kg/ha, preemergence)
5.0: CYPSE herbicidal rating ([1]; 0.2500 kg/ha, preemergence) | SAGPY herbicidal rating (Sagittaria pygmaea, L.; 0.2500 kg/ha, preemergence) | CYPIR herbicidal rating (Cyperus iria; 0.0320 kg/ha, preemergence) | CYPIR herbicidal rating (Cyperus iria; 0.2500 kg/ha, preemergence) | MOOVA herbicidal rating ([3]; 0.0320 kg/ha, preemergence) | MOOVA herbicidal rating ([3]; 0.2500 kg/ha, preemergence) | ORYSAT herbicidal rating (rice tolerance) ([4]; 0.1250 kg/ha) | ORYSAT herbicidal rating (rice tolerance) ([4]; 0.2500 kg/ha)
4.0: SAGPY herbicidal rating (Sagittaria pygmaea, L.; 0.0620 kg/ha, preemergence) | SAGPY herbicidal rating (Sagittaria pygmaea, L.; 0.1250 kg/ha, preemergence)
7.0: CYPSE herbicidal rating ([1]; 0.1250 kg/ha, preemergence) | ECHORC herbicidal rating ([2]; 0.0320 kg/ha, preemergence) | ECHORC herbicidal rating ([2]; 0.0620 kg/ha, preemergence) | MOOVA herbicidal rating ([3]; 0.1250 kg/ha, preemergence)
3.0: SAGPY herbicidal rating (Sagittaria pygmaea, L.; 0.0320 kg/ha, preemergence) | ORYSAT herbicidal rating (rice tolerance) ([4]; 0.0320 kg/ha) | ORYSAT herbicidal rating (rice tolerance) ([4]; 0.0620 kg/ha)
9.0: ECHORC herbicidal rating ([2]; 0.1250 kg/ha, preemergence) | ECHORC herbicidal rating ([2]; 0.2500 kg/ha, preemergence)
6.0: CYPSE herbicidal rating ([1]; 0.0620 kg/ha, preemergence) | CYPIR herbicidal rating (Cyperus iria; 0.0620 kg/ha, preemergence) | CYPIR herbicidal rating (Cyperus iria; 0.1250 kg/ha, preemergence) | MOOVA herbicidal rating ([3]; 0.0620 kg/ha, preemergence)
